The test system of one assay is MCF-7. The assay is described as follows: Quantitative HIF1α MSD immunoassay, MCF-7. Format: cell-based. To be noted: Homo sapiens, read-out: HIF1α EC50. The procedure:
(§1) Cells were seeded into 96-well cell culture plates (150 μl culture volume) at approximately 60–70% confluency at least 12 h prior to the compound treatment. Half of the culture medium (75 μl/well) were removed and 75 μl/well of medium containing the desired concentrations of compounds were added into cells for 5 h. The cell medium was then removed and the cells were washed once with phosphate buffered saline (PBS), followed by the addition of lysis buffer (20 mM Tris pH 7.4, 450 mM NaCl, 1 mM EDTA, 1 mM EGTA, 0.5% Triton X-100, 1x complete protease inhibitor cocktail and 100 μM DFO). Plates were then left at 4°C with shaking. […] Plates were washed thrice with Tris Wash Buffer, added with 150 μl/well 2X Read Buffer (R92TC, Meso Scale Discovery) before being read with an MSD Sector S600 plate reader (Meso Scale Discovery). Signals generated were normalized to “lysis buffer-only” controls.
(§2) To quantify the cellular efficiency of PHD inhibition, we developed an electrochemiluminescence-based assay for the quantification of HIF1α levels using the Meso Scale Discovery (MSD, http://www.mesoscale.com) technology (HIF1α MSD assay), which is based on the capture and detection of HIF1α protein using two specific HIF1α antibodies. […]

A further assay has as its system Hep3B. The assay can be described thus: Quantitative HIF1α MSD immunoassay, Hep3B. Format: cell-based. To be noted: Homo sapiens, read-out: HIF1α EC50. On the procedure:
as §1, §2

The target of the next assay is PHD2 (Homo sapiens, UniProt Q9GZT9). The assay is described as follows: PHD2 antibody-based (AlphaScreen) in vitro hydroxylation assay.
The target in the next assay is T1, BBOX1 (Homo sapiens, UniProt O75936).
T1 sequence (O75936 1-387): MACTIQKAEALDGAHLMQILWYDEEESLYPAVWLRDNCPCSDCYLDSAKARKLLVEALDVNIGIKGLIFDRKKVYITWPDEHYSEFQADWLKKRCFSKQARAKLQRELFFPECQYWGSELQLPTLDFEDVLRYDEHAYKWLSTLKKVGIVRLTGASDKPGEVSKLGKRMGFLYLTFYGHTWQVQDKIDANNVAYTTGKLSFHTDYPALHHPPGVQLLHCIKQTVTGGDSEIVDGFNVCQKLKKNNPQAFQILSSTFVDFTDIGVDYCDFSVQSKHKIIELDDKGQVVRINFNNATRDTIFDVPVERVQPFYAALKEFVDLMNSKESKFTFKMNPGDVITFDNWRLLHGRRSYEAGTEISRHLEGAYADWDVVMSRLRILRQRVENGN
The assay can be described thus: BBOX fluoride-release / detection based fluorescence assay.

The target in another assay is FTO (Homo sapiens, UniProt Q9C0B1). The assay is described as follows: FTO LC-MS assay.
In the next assay the target is T2, JMJD2C (KDM4C) (Homo sapiens, UniProt Q9H3R0).
T2 sequence (Q9H3R0 1-1056): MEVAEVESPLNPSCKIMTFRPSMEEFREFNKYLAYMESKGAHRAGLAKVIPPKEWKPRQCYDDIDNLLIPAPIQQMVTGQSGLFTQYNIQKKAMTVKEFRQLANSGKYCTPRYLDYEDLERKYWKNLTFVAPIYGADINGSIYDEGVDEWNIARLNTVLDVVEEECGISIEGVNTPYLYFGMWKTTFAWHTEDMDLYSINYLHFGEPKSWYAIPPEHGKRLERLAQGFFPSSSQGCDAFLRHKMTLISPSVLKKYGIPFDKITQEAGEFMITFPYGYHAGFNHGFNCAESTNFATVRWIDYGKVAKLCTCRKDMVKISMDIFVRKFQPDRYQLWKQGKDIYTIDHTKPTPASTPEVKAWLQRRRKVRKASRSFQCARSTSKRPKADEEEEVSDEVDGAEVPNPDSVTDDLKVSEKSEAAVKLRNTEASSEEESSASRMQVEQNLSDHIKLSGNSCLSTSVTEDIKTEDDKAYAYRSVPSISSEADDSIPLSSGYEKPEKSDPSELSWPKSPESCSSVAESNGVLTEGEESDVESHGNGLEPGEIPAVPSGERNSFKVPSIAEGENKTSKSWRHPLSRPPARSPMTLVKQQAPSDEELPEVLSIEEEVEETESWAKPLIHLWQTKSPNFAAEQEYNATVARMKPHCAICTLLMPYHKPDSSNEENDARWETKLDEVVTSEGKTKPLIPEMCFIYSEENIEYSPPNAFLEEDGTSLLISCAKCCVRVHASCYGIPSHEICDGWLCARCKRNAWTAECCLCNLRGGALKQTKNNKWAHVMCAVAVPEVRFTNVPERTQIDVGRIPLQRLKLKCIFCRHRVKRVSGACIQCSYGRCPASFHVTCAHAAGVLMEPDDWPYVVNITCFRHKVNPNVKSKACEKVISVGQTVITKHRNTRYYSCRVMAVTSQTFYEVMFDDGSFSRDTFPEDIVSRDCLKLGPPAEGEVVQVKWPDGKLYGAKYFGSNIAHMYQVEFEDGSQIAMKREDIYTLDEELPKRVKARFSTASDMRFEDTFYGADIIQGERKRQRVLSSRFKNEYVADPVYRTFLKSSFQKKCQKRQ
The assay can be described thus: KDM AlphaScreen assay, JMJD2C.

Where a name gives a salt, the structure may show the parent alone. Read-outs that look alike come from different tables or passages of the source.

Sequence of PHD2 (Q9GZT9 whole entry): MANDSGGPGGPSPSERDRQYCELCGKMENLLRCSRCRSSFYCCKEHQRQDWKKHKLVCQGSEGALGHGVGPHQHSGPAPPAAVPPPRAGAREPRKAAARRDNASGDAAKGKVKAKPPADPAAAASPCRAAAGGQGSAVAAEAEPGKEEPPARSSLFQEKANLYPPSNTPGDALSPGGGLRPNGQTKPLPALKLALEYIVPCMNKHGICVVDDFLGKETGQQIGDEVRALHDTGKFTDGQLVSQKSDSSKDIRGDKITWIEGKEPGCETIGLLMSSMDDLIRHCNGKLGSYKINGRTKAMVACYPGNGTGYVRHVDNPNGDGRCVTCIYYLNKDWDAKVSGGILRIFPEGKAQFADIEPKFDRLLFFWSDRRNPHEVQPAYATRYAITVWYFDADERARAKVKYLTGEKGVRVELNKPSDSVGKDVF
Sequence of FTO (Q9C0B1 whole entry): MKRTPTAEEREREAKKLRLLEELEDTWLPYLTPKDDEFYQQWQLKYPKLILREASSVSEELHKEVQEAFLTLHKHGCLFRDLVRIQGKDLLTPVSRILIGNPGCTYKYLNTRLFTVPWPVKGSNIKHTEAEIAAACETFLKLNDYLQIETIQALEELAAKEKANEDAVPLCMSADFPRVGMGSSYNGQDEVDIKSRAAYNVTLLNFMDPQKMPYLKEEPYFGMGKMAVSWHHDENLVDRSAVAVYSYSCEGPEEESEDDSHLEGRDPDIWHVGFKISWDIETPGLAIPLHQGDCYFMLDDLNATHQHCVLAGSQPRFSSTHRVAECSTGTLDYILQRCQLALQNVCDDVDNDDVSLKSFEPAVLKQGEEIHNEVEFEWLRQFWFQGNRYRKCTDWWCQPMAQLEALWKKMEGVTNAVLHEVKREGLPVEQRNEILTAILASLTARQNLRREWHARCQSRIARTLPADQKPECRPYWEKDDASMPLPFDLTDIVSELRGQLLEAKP
Procedure for BBOX1: (§3) Inhibition assays for PHD2 (AlphaScreen) [9], the KDMs (AlphaScreen) [17], BBOX [18] and FTO [19] were carried out as previously described. N-Terminally biotinylated 19-residue human HIF1α CODD peptide ([sequence]) used in the PHD2 inhibition assays was from GL Biochem (Shanghai). IC50 values were calculated using nonlinear regression with normalized dose-response fit using GraphPad Prism 5.
Procedure for FTO: as §3
Procedure for JMJD2C (KDM4C): as §3
Procedure for PHD2: as §3

In the case of `O=C(O)CNC(=O)c1c(O)c2ccccc2n(Cc2ccccc2)c1=O` [IOX2], the EC50 was found to be 114 µM with MCF-7 (MCF7, MCF-7, 5 h treatment, MSD assay) and 86 µM in the assay on Hep3B (5 h treatment, MSD assay). The “selectivity for PHD2 over all other tested enzymes” value on PHD2 (from IC50 values of the 2OG oxygenase panel (Table 1)) was “approximately 400 fold”. In addition, the IC50 stood at 9.5 µM against BBOX1 and 11 µM against FTO.
Turning to `CC(C)(C)OC(=O)c1ccc(-n2[nH]cc(-n3ccnn3)c2=O)nc1` [IOX4, t-Butyl 6-(5-oxo-4-(1H-1,2,3-triazol-1-yl)-2,5-dihydro-1H-pyrazol-1-yl)nicotinate], the EC50 with MCF-7 (MCF7, 5 h) was 11.7 µM; in the assay with Hep3B (5 h), 11.1 µM. The IC50 is 0.0016 µM on PHD2, 73 µM at BBOX1, more than 20 µM against JMJD2C (KDM4C) and 49 µM on FTO.
On to `O=C(O)c1ccc(-n2[nH]cc(-n3ccnn3)c2=O)nc1` [compound 1, 6-(5-oxo-4-(1H-1,2,3-triazol-1-yl)-2,5-dihydro-1H-pyrazol-1-yl)pyridine-3-carbocylic acid hydrochloride], for which the half-inhibitory concentration (IC50) on PHD2 was 0.0048 µM; on BBOX1 it was more than 50 µM; on JMJD2C (KDM4C), more than 20 µM; on FTO, 37 µM.

The values above are taken from paper PMC4492579, “Potent and Selective Triazole-Based Inhibitors of the Hypoxia-Inducible Factor Prolyl-Hydroxylases with Activity in the Murine Brain” (PLoS ONE, 2015).
